Test results: patent publication US11953435B2, “Zinc-responsive fluorophores” (Northwestern University, priority 2019, dated 2024)

test: Octanol-water partition coefficient (log P); format: physicochemical; conditions: 1:1 HEPES buffer and 1-octanol
Experimental: Aqueous solutions were prepared by using de-ionized water with resistivity […], obtained using a Milli-Q water purification system. In order to properly compare the photophysical properties of ZincBY-2, ZincBY-3, and ZincBY-4 to ZincBY-1, the photophysical properties of ZincBY-1 we remeasured. Tested values differed from the previously published values (Ref. B2; incorporated by reference in its entirety). It was determined that copper was present in the aqueous buffer used for in vitro analysis of the previous samples. The corrected values are used herein, utilizing buffers that are copper-free. Stock solutions of ZincBY-1, ZincBY-2, ZincBY-3, and ZincBY-4 were prepared at concentrations of 5 mM and stored at −20° C. in aliquots that were used immediately after thawing for each experiment. Unless otherwise stated, all spectroscopic methods were conducted in aqueous buffer containing 50 mM HEPES (pH 7.2) and 0.1 M KNO3. […] Fluorescence spectra were acquired using a PerkinElmer LS 55 fluorescence spectrophotometer. […] Quantum yields for apo and holo ZincBY-1, ZincBY-2, ZincBY-3, and ZincBY-4 were determined by plotting absorbance vs. fluorescence intensity of solutions containing ZincBY-1, ZincBY-2, ZincBY-3, or ZincBY-4 at probe concentrations ranging from 50-250 nM. […] Fluorescein dissolved in 0.1 N NaOH was used as the quantum yield standard, using a literature-determined quantum yield of 0.95.^3 For all fluorophore solutions, fluorescence excitation was set at 490 nm and fluorescence emission was integrated from 510 nm to 650 nm. […] Fluorescence spectra were recorded using zinc probes (ZincBY-1, ZincBY-2, ZincBY-3, or ZincBY-4; 200 nM) and ZnSO4 (various concentrations). […] Free Zn^2+ was calculated according to a previously reported method (Ref. B4; incorporated by reference in its entirety). […] The fluorescence spectra of zinc probes (ZincBY-2, ZincBY-3, or ZincBY-4; 200 nM) wasere measured at various pH values (4.5-11). […] The fluorescence spectra were compared to that of ZincBY-2 (200 nM), ZincBY-3 (200 nM), or ZincBY-4 (200 nM) in the presence of 10 μM TPEN. […]

| Structure (SMILES) | LogP |
| --- | --- |
| CC(=O)NCCOc1ccc2n1[B-](F)(F)[N+]1=C(N(CCN(Cc3ccccn3)Cc3ccccn3)Cc3ccccn3)C=CC1=C2c1c(C)cc(C)cc1C [ZincBY-4, N-(2-((7-((2-(bis(pyridin-2-ylmethyl)amino)ethyl)(pyridin-2-ylmethyl)amino)-5,5-difluoro-10-mesityl-5H-5λ4,6λ4-dipyrrolo[1,2-c:2′,1′-f][1,3,2]diazaborinin-3-yl)oxy)ethyl)acetamide] | ~0.33 |
| Cc1cc(C)c(C2=C3C=CC(OCCN)=[N+]3[B-](F)(F)n3c2ccc3N(CCN(Cc2ccccn2)Cc2ccccn2)Cc2ccccn2)c(C)c1 [ZincBY-3, N1-(7-(2-aminoethoxy)-5,5-difluoro-10-mesityl-5H-4λ4,5λ4-dipyrrolo[1,2-c:2′,1′-f][1,3,2]diazaborinin-3-yl)-N1,N2,N2-tris(pyridin-2-ylmethyl)ethane-1,2-diamine] | ~0.15 |
| Cc1cc(C)c(C2=C3C=CC(OCCN=[N+]=[N-])=[N+]3[B-](F)(F)n3c2ccc3N(CCN(Cc2ccccn2)Cc2ccccn2)Cc2ccccn2)c(C)c1 [ZincBY-2, N1-(7-(2-azidoethoxy)-5,5-difluoro-10-mesityl-5H-4λ4,5λ4-dipyrrolo[1,2-c:2′,1′-f][1,3,2]diazaborinin-3-yl)-N1,N2,N2-tris(pyridin-2-ylmethyl)ethane-1,2-diamine] | ~1.25 |
